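Step 1: Grow cells in 96-well plates. Step 2: Expose to compound for 48 hours at 5 concentrations. Step 3: Interpolate endpoints linearly; if unreached, use highest concentration. Abbreviation: GI50, concentration required for 50% inhibition of growth. TGI denotes the concentration required for complete inhibition of growth.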
Tests used:
Experiment in all cases: NCI-60 cell line screen, 48 h
[1] = tested on: MDA-N
[2] = tested on: KM12 colon
[3] = tested on: T-47D breast
[4] = tested on: 786-0 renal
[5] = tested on: TK-10 renal
[6] = tested on: HCT-15 colon
[7] = tested on: NCI-H460 lung
[8] = tested on: M14 melanoma
[9] = tested on: NCI-H23 lung
[10] = tested on: NCI/ADR-RES ovarian

Compound CC(=O)Nc1ccc2c(c1)nc1c3ccccc3ccn21 has a TGI [1] of over 100 µM, a TGI [2] of over 100 µM and a TGI [3] of over 100 µM. For the same compound, the TGI [4] was over 100 µM, the TGI [5] was over 100 µM and the TGI [6] was over 100 µM. The TGI [7] was over 100 µM, the TGI [8] was over 100 µM and the TGI [9] was over 100 µM. It also gave a TGI [10] of over 100 µM.

O=C1C=CC(=O)c2c(O)c(N3CCN(c4ncccn4)CC3)c(Cl)c(O)c21 showed a TGI [1] of 3.75 µM, a TGI [2] of 15.2 µM and a TGI [3] of 5.7 µM. The TGI [4] was 3.1 µM, the TGI [5] was 3.47 µM and the TGI [7] was over 47.6 µM. The TGI [8] was 3.45 µM, the TGI [9] was 4.59 µM and the TGI [10] was 8.69 µM.

Work on CCC1(c2ccc(OC)c(OC)c2)CCN2C(=O)C(O)CC21 (stereo not given) yielded a TGI [1] of over 100 µM, a TGI [2] of over 100 µM and a TGI [3] of over 100 µM. It also gave a TGI [4] of over 100 µM, a TGI [5] of over 100 µM and a TGI [6] of over 100 µM. The TGI [7] was over 100 µM, the TGI [8] was over 100 µM and the TGI [9] was over 100 µM. The TGI [10] was over 100 µM.

With CO[C@H](C)[C@](O)(C(=O)OCC1=CCN2CC[C@@H](O)[C@H]12)C(C)C the TGI [1] was over 100 µM, the TGI [2] was over 100 µM and the TGI [3] was over 100 µM. The TGI [4] was over 100 µM, the TGI [5] was over 100 µM and the TGI [6] was over 100 µM. For the same compound, the TGI [7] was over 100 µM, the TGI [8] was over 100 µM and the TGI [9] was over 100 µM. It also gave a TGI [10] of over 100 µM.

With O=c1[nH]nc(-c2ccc([N+](=O)[O-])cc2)[nH]1 the TGI [1] was over 100 µM, the TGI [2] was over 100 µM and the TGI [3] was over 100 µM. For the same compound, the TGI [4] was over 100 µM, the TGI [5] was over 100 µM and the TGI [6] was over 100 µM. It also gave a TGI [7] of over 100 µM, a TGI [8] of over 100 µM and a TGI [9] of over 100 µM. For the same compound, the TGI [10] was over 100 µM.

CCCCCc1cc(CCCC)sc1-c1ccco1 gave a TGI [1] of over 100 µM, a TGI [2] of over 100 µM and a TGI [3] of over 100 µM. The TGI [4] was over 100 µM, the TGI [5] was over 100 µM and the TGI [6] was over 100 µM. The TGI [7] was over 100 µM, the TGI [8] was over 100 µM and the TGI [9] was over 100 µM. It also gave a TGI [10] of over 100 µM.

In the case of C[N+]1(CCCCN2c3ccccc3Sc3cc(N=[N+]=[N-])ccc32)CCN(C(=O)CCNC(=O)Cc2ccc(C(=O)c3ccccc3)cc2)CC1, the TGI [1] is reported as over 71.9 µM, the TGI [2] is reported as 61.2 µM and the TGI [3] is reported as over 76.4 µM. It also gave a TGI [4] of over 67.5 µM, a TGI [5] of 26.5 µM and a TGI [6] of 55.9 µM. The TGI [7] was over 74.2 µM, the TGI [8] was over 72.9 µM and the TGI [9] was over 82.4 µM. It also gave a TGI [10] of over 91.1 µM.

O=C(O)C12C3C4(C(=O)O)C1C1(C(=O)O)C2C3(C(=O)O)C41 (stereo not given) was tested, and the TGI [1] was over 100 µM, the TGI [2] was over 100 µM and the TGI [3] was over 100 µM. The TGI [4] was over 100 µM, the TGI [5] was over 100 µM and the TGI [6] was over 100 µM. It also gave a TGI [7] of over 100 µM, a TGI [8] of over 100 µM and a TGI [9] of over 100 µM. The TGI [10] was over 100 µM.

CN(C)CN1C(=O)/C(=N\n2c(-c3ccncc3)n[nH]c2=S)c2ccccc21 showed a TGI [1] of 31.8 µM, a TGI [2] of over 100 µM and a TGI [3] of over 100 µM. For the same compound, the TGI [4] was 41.6 µM, the TGI [5] was over 100 µM and the TGI [6] was over 100 µM. The TGI [7] was over 100 µM, the TGI [8] was 70.4 µM and the TGI [9] was over 100 µM. It also gave a TGI [10] of over 100 µM.

With O=C(O)Cn1c[n+](NC(=O)Cc2ccccc2)cn1 the TGI [1] was over 10 µM, the TGI [2] was over 10 µM and the TGI [3] was over 10 µM. The TGI [4] was over 10 µM, the TGI [5] was over 10 µM and the TGI [6] was over 10 µM. The TGI [7] was over 10 µM, the TGI [8] was over 10 µM and the TGI [9] was over 10 µM. For the same compound, the TGI [10] was over 10 µM.

CC1=CC(O)CC(C)(C)C1/C=C/C(C)=C/C=C/C(C)=C/C=C/C=C(C)/C=C/C=C(C)/C=C/C1=C(C)CC(O)CC1(C)C (stereo not given) gave a TGI [1] of 37.8 µM, a TGI [2] of over 100 µM and a TGI [3] of 44.7 µM. For the same compound, the TGI [4] was 36.7 µM, the TGI [5] was over 100 µM and the TGI [6] was 34.4 µM. The TGI [7] was over 100 µM, the TGI [8] was 29.8 µM and the TGI [9] was 56.9 µM. It also gave a TGI [10] of 59.8 µM.

With COC(=O)Cc1c2n(c3ccccc13)C(=O)N1c3ccccc3C(CC(=O)OC)C21 (stereo not given) the TGI [1] was over 100 µM, the TGI [3] was over 100 µM and the TGI [4] was over 100 µM. The TGI [5] was 47.7 µM, the TGI [6] was over 100 µM and the TGI [7] was 33.6 µM. The TGI [9] was 64.6 µM and the TGI [10] was over 100 µM.

Oc1ccc(C[C@@H]2CN[C@H](Cc3ccc(O)c(Br)c3)CN2)cc1 was tested, and the TGI [2] was over 100 µM, the TGI [3] was over 100 µM and the TGI [4] was over 100 µM. It also gave a TGI [5] of over 100 µM, a TGI [6] of over 100 µM and a TGI [8] of over 100 µM. The TGI [9] was over 100 µM and the TGI [10] was over 100 µM.

In the case of CCOC(=O)C(NC(=O)CC)(Nc1ccccc1F)C(F)(F)F (stereo not given), the TGI [1] is reported as over 100 µM, the TGI [2] is reported as over 100 µM and the TGI [3] is reported as over 100 µM. It also gave a TGI [5] of over 100 µM, a TGI [6] of over 100 µM and a TGI [7] of over 100 µM. The TGI [8] was over 100 µM, the TGI [9] was over 100 µM and the TGI [10] was over 100 µM.

Compound O=C(/C=C/CC(O)(c1ccccc1)c1ccccc1)Nc1ccccc1Cl has a TGI [2] of over 100 µM, a TGI [5] of over 100 µM and a TGI [6] of over 100 µM. The TGI [7] was over 100 µM, the TGI [8] was over 100 µM and the TGI [9] was over 100 µM.

CCc1nc2c([nH]1)C(=O)c1ccccc1C2=O was tested, and the TGI [2] was over 100 µM, the TGI [4] was over 100 µM and the TGI [5] was over 100 µM. It also gave a TGI [6] of over 100 µM, a TGI [7] of over 100 µM and a TGI [8] of over 100 µM. The TGI [9] was over 100 µM.

With COC(=O)c1ccc2cc(O)ccc2c1 the TGI [1] was over 100 µM, the TGI [2] was over 100 µM and the TGI [3] was over 100 µM. It also gave a TGI [4] of over 100 µM, a TGI [5] of over 100 µM and a TGI [6] of over 100 µM. The TGI [8] was over 100 µM, the TGI [9] was over 100 µM and the TGI [10] was over 100 µM.

COc1ccc(C(=O)/C=C/c2ccc(OCCCCCCCCCCOc3ccc(/C=C/C(=O)c4ccc(OC)c(OC)c4)cc3)cc2)c(OC)c1 was tested, and the TGI [1] was over 100 µM, the TGI [2] was over 100 µM and the TGI [3] was over 100 µM. The TGI [4] was over 100 µM, the TGI [5] was over 100 µM and the TGI [6] was over 100 µM. The TGI [7] was over 100 µM, the TGI [8] was over 100 µM and the TGI [10] was over 100 µM.

Work on CN1C2CCC1C(CO)C(=O)C2 (stereo not given) yielded a TGI [2] of over 100 µM, a TGI [3] of 48.1 µM and a TGI [5] of 59.3 µM. It also gave a TGI [6] of 75.3 µM, a TGI [7] of over 100 µM and a TGI [9] of over 100 µM. It also gave a TGI [10] of over 100 µM.

COc1ccccc1Cn1c2c(c3cc(O)ccc31)C(=O)c1ccccc1C2=O was tested, and the TGI [1] was over 100 µM, the TGI [2] was over 100 µM and the TGI [4] was 45.5 µM. It also gave a TGI [5] of over 100 µM, a TGI [6] of over 100 µM and a TGI [7] of over 100 µM. It also gave a TGI [8] of over 100 µM, a TGI [9] of 95.8 µM and a TGI [10] of 40.4 µM.

CCc1ccc(OCc2ccccc2C(=O)Nc2ccc3nc(C)cc(N)c3c2)cc1 was tested, and the GI50 [5] was 1.68 µM, the TGI [5] was 3.17 µM and the GI50 [10] was 1.75 µM. The TGI [10] was 4.2 µM.

O=C1CN(c2ccccc2)C(=O)C1C(=O)Nc1ccc(Cl)c(Cl)c1 (stereo not given) showed a TGI [5] of 18.5 µM, a TGI [6] of 13.1 µM and a TGI [8] of 12.6 µM. The TGI [9] was 20.2 µM.

In the case of Cn1c(=O)c2[nH]c(Nc3cccc(Cl)c3)nc2n(C)c1=O, the TGI [1] is reported as over 10 µM, the TGI [2] is reported as over 10 µM and the TGI [3] is reported as 8.72 µM. It also gave a TGI [4] of over 10 µM, a TGI [5] of over 10 µM and a TGI [6] of over 10 µM. The TGI [8] was over 10 µM and the TGI [9] was over 10 µM.

With C[C@@H](CCO)OC1OC(COC(=O)C(C)(C)C)C(OC(=O)C(C)(C)C)C(OC(=O)C(C)(C)C)C1OC(=O)C(C)(C)C (stereo not given in full) the TGI [3] was over 100 µM, the TGI [4] was over 100 µM and the TGI [5] was over 100 µM. It also gave a TGI [6] of over 100 µM, a TGI [7] of 36.6 µM and a TGI [8] of over 100 µM. It also gave a TGI [9] of over 100 µM and a TGI [10] of over 100 µM.

— PubChem BioAssay (NCI)
